From patent US20250332138A1, “PHARMACEUTICAL COMPOSITION FOR PREVENTING OR TREATING MENTAL DISORDER” (Vivozon, Inc., priority 2022, published 2025)

How the values were obtained:
male Sprague-Dawley rats = experiment: Acquisition of morphine intravenous self-administration (prevention of drug addiction); type: in vivo, rat; conditions: 8 days, vs solvent control
Procedure: The experimental animals and the experimental methods for intravenous self-administration were performed in a similar manner to Example 1, and Test Compounds A and C were used as the test compounds.
To investigate the preventive effect of the test compounds on morphine addiction, rats recovering from surgery were subjected to morphine intravenous self-administration (IVSA) for eight (8) consecutive days, with 2-hours sessions each day, using a fixed ratio of 1 (FR1) (0.1 mg/kg/infusion, 0.1 mL delivered within 4 seconds). Test compounds A and C were dissolved in water containing 0.5% HPMC (hydroxypropyl methylcellulose) and 1% Tween 80, and administered orally at doses of 5 mg/kg and 100 mg/kg, respectively, 2 hours before morphine IVSA. The preventive effects on acquisition of morphine IVSA were measured, and the results are represented in FIGS. 4 and 5.

human 5-HT2A receptor = target: T1, human 5-HT2A receptor (Homo sapiens, UniProt P28223); experiment: HTRF-based IP1 accumulation assay; conditions: HEK293 cell line overexpressing human 5-HT2A receptor; serotonin at EC80; IP1 production; read-out: Human 5-HT2AR (IC50)
T1 construct: expressed in transfected cells; host or cells: HEK293
Procedure: The 5-HT2A receptor antagonistic effect of the test compounds was confirmed by measuring the production amount of IP1 using the HEK293 cell line permanently overexpressing the human 5-HT2A receptor. The test compounds were dissolved in 100% DMSO to a final concentration of 10 mM. The starting concentration of 10 μM was prepared from the stock solution, followed by serial dilutions to prepare working solutions in a buffer containing lithium chloride (LiCl). The cells and compounds prepared in the test buffer were placed in a 96-well plate and incubated at room temperature for 10 minutes. Serotonin of EC80 concentration was added, followed by incubation at 37° C. for 30 minutes in a light-shielding state. To measure IP1 accumulation in cells, IP1-d2 acceptor and IP1-Cryptate donor—which are HTRF-based substances for fluorescence signals—were added and incubated for 1 hour at room temperature in a light-shielded state. The fluorescent emission signals of acceptor and donor were detected, and HTRF ratio values were substracted by mean value of serotonin control. The percentage of activation was calculated by normalization of the serotonin control (0%) and IP1 control (100%). The IC50 values of the test compounds are represented in Table 2. (+: 500-1,000 nM, ++: 100-500 nM, +++: less than 100 nM).

mGluR5 = target: T2, mGluR5 (Homo sapiens, UniProt P41594); experiment: Fluorescence-based Ca2+ mobilization assay; conditions: HEK293 cell line overexpressing mGluR5; L-glutamate at EC80; Ca2+ level, FLIPR
T2 construct: expressed in transfected cells; host or cells: HEK293
Procedure: In order to measure the activity on the mGluR5, an experiment was carried out to check the change in the intracellular Ca^2+ level using the HEK293 cell line permenantly overexpressing the mGluR5. The cells in the cell culture medium were aliquoted into a 384-well plate coated with poly-D-lysine and cultured in a 37° C. incubator supplied with 5% CO2. The next day, the medium was removed and a dye loading buffer—in which a reagent capable of measuring Ca^2+ was dissolved—was added, and then incubated at 37° C. for 60 minutes. The test compounds were dissolved in 100% DMSO at a final concentration of 10 mM to make a stock solution. The starting concentration of 10 μM was prepared from the stock solution, followed by serial dilutions to prepare working solutions (test compound working solutions). The test compound working solutions were added to the cells that were incubated in the dye loading buffer, which were maintained for 30 minutes at room temperature in a light-shielding state before measurement. The Ca^2+ level change induced by L-glutamate at EC80 concentration was measured for 2 minutes using FLIPR Tetra (MDS Analytical Technologies). The fluorescent Ca^2+ signal values in the presence of the test compounds were normalized to the fluorescent singal elicited by EC80 concentration of L-glutamate as 100% and that elicited by vehicle as 0% to estimate % inhibition of the test compounds. The efficacy of the test compounds was calculated as IC50 values and represented in Table 2. (+: 500-1,000 nM, ++: 100-500 nM, +++: less than 100 nM).

[1] = test system: neurons in the ventral tegmental area; conditions: cited from earlier work
test animals [2] = conditions: injected into the amygdala; cited from earlier work
test animals [3] = conditions: injected into the amygdala; cited from earlier work; remark: listed apart in the source
mouse = mouse tail suspension test; cited from earlier work
amygdala = conditions: cited from earlier work
rat = rat forced swim test; cited from earlier work
cocaine-addicted rats = conditions: cited from earlier work
[4] = test system: patients with cocaine use disorder; conditions: 68 patients with cocaine use disorder; cited from earlier work

T1 sequence (P28223 whole entry): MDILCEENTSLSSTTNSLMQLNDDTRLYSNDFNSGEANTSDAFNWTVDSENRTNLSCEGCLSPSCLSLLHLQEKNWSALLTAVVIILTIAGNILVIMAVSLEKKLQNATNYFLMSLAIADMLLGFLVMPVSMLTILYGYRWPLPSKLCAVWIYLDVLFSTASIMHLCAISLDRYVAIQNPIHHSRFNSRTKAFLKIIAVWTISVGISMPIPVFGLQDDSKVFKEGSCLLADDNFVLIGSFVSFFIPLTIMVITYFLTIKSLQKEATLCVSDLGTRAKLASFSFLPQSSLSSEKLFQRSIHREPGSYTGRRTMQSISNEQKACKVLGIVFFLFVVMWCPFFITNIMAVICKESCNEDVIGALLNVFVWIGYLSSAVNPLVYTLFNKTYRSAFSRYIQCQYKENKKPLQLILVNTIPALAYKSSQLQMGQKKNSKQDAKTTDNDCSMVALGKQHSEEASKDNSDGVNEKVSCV
T2 sequence (P41594 21-1212): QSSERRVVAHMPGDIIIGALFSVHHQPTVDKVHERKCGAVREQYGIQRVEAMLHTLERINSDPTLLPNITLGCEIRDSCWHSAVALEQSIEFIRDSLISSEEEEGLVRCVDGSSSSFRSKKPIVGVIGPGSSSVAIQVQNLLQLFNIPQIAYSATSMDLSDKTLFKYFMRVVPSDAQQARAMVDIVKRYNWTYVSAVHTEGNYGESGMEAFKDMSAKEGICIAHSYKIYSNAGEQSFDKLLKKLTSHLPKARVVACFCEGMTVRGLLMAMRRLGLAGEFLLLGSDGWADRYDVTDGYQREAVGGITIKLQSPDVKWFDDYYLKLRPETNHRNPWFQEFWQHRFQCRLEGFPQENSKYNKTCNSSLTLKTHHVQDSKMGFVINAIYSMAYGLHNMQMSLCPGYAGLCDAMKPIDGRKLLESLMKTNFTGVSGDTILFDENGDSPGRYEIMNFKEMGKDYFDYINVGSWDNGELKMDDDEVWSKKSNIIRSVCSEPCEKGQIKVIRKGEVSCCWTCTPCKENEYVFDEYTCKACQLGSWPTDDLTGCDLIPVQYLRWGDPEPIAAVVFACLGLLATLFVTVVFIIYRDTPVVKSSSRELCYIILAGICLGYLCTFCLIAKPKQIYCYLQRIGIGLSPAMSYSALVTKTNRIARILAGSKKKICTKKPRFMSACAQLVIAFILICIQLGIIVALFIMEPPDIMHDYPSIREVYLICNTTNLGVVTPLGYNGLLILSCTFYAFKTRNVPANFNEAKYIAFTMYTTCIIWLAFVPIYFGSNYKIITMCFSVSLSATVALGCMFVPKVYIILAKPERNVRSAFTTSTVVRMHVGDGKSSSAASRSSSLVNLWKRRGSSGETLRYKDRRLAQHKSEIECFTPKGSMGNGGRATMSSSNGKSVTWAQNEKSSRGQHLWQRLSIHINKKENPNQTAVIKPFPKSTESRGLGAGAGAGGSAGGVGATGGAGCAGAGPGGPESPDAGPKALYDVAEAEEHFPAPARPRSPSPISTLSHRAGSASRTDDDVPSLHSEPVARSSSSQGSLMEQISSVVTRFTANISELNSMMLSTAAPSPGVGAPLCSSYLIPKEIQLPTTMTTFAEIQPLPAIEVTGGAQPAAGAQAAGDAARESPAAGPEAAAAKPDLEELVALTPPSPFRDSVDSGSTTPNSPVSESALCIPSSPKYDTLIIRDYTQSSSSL

Row | SMILES | IC50 (human 5-HT2A receptor) | IC50 (mGluR5) | other results
1 | O=C(NCC1CCOCC1)c1ccc(C#Cc2ccccc2F)cc1 [Compound 1, 4-((2-fluorophenyl)ethynyl)-N-((tetrahydro-2H-pyran-4-yl)methyl)benzamide] | – | – | number of injections (acquisition of morphine self-administration) (male Sprague-Dawley rats; 100 mg/kg orally 2 hours before morphine IVSA, FIG. 5): significantly lower
2 | CC1(CNC(=O)c2ccc(C#Cc3ccccc3F)cc2)COC1 [Compound 6, 4-((2-fluorophenyl)ethynyl)-N-((3-methyloxetan-3-yl)methyl)benzamide] | – | – | number of injections (acquisition of morphine self-administration) (male Sprague-Dawley rats; 5 mg/kg orally 2 hours before morphine IVSA, FIG. 4): significantly lower
3 | CC1(O)CC(CNC(=O)c2ccc(C#Cc3ccccc3F)cc2)C1 (stereo not drawn) [Compound 12, 4-((2-fluorophenyl)ethynyl)-N-(((1s,3s)-3-hydroxy-3-methylcyclobutyl)methyl)benzamide] | 100 to 500 nM | < 100 nM | –
4 | [2H]C(NC(=O)c1ccc(C#Cc2ccccc2F)cc1)C1(C)COC1 (stereo not drawn) [Compound 16, 4-((2-fluorophenyl)ethynyl)-N-((3-methyloxetan-3-yl)methyl-d)benzamide] | 100 to 500 nM | – | –
5 | O=C(NC[C@H]1CCOC1)c1ccc(C#Cc2ccc(F)cc2F)cc1 [Compound 18, (R)-4-((2,4-difluorophenyl)ethynyl)-N-((tetrahydrofuran-3-yl)methyl)benzamide] | – | 100 to 500 nM | –
6 | O=C(NC[C@@H]1CCOC1)c1ccc(C#Cc2ccc(F)cc2F)cc1 [Compound 19, (S)-4-((2,4-difluorophenyl)ethynyl)-N-((tetrahydrofuran-3-yl)methyl)benzamide] | – | 100 to 500 nM | –
7 | CC1(CNC(=O)c2ccc(C#Cc3ccc(F)cc3F)cc2)CCOCC1 [Compound 24, 4-((2,4-difluorophenyl)ethynyl)-N-((4-methyltetrahydro-2H-pyran-4-yl)methyl)benzamide] | 100 to 500 nM | < 100 nM | –
8 | O=C(NCCC1CCOCC1)c1ccc(C#Cc2ccc(F)cc2F)cc1 [Compound 25, 4-((2,4-difluorophenyl)ethynyl)-N-(2-(tetrahydro-2H-pyran-4-yl)ethyl)benzamide] | < 100 nM | 100 to 500 nM | –
9 | O=C(NCC1(O)CCCCC1)c1ccc(C#Cc2ccc(F)cc2)cc1 [Compound 26, 4-((4-fluorophenyl)ethynyl)-N-((1-hydroxycyclohexyl)methyl)benzamide] | 100 to 500 nM | < 100 nM | –
10 | O=C(NCC1(O)CCC1)c1ccc(C#Cc2ccc(F)cc2)cc1 [Compound 27, 4-((4-fluorophenyl)ethynyl)-N-((1-hydroxycyclobutyl)methyl)benzamide] | < 100 nM | < 100 nM | –
11 | O=C(NCC1(O)CCCCC1)c1ccc(C#Cc2ccc(F)cc2F)cc1 [Compound 28, 4-((2,4-difluorophenyl)ethynyl)-N-((1-hydroxycyclohexyl)methyl)benzamide] | 100 to 500 nM | 500 to 1000 nM | –
12 | O=C(NCC1(O)CCC1)c1ccc(C#Cc2ccc(F)cc2F)cc1 [Compound 29, 4-((2,4-difluorophenyl)ethynyl)-N-((1-hydroxycyclobutyl)methyl)benzamide] | < 100 nM | 100 to 500 nM | –
13 | O=C(NCC1CCC1)c1ccc(C#Cc2ccc(F)cc2F)cc1 [Compound 30, N-(cyclobutylmethyl)-4-((2,4-difluorophenyl)ethynyl)benzamide] | 100 to 500 nM | 100 to 500 nM | –
14 | COc1cccc([C@H](O)C2CCN(CCc3ccc(F)cc3)CC2)c1OC [Compound M100907] | – | – | dopamine secretion [1]: inhibited
15 | COc1cc(CC(C)N)c(OC)cc1I (stereo not drawn) [DOI, 1-[2,5-dimethoxy-4-iodophenyl]-2-aminopropane] | – | – | dopamine secretion [1]: promoted dopamine secretion
16 | Cc1cccc(C#Cc2ccccc2)n1 [MPEP] | – | – | number of entries into the open arm (test animals [2]): increased; time the test animals spend in the open arm (test animals [2]): increased; time the test animals spend in the bright area (test animals [3]): increased; immobility time (mouse): decreased immobility time in a dose-dependent manner; formation of long-term potentiation (LTP) in the amygdala (amygdala): inhibiting
17 | Cc1nc(C#Cc2cccnc2)cs1 [MTEP, 3-[(2-methyl-1,3-thiazol-4-yl)ethynyl]pyridine] | – | – | immobility time (rat): reducing immobility time
18 | O=C(c1ccc(F)cc1)C1CCN(CCn2c(=O)[nH]c3ccccc3c2=O)CC1 [ketanserin] | – | – | self-administration restored by signal stimulation (cocaine-addicted rats): reduced; cocaine-induced increase in dopamine ([1]; pretreatment): suppressed
19 | COC(=O)N1CC[C@@H]2[C@H]1CCC[C@@]2(O)C#Cc1cccc(C)c1 [mavoglurant] | – | – | clinical efficacy [4]: confirmed
20 | Cc1nc2sccn2c(=O)c1CCN1CCC(=C(c2ccc(F)cc2)c2ccc(F)cc2)CC1 [ritanserin] | – | – | dopamine secretion [1]: inhibited
